Key:
[1] = test system: APOE*3-Leiden transgenic (E3L) mice; assay: Food intake per animal per day in E3L mice; assay type: in vivo, mouse
Text: (§1) We assessed the effect of inhibiting FAAH activity on body weight, body fat, triglyceride levels, cholesterol levels in APOE*3-Leiden transgenic (E3L) mice, an animal model of hyperlipidemia. […] See van Vlijmen et al. (1994), J. Clin Invest., 93:1403-1410. Indeed, upon high fat and cholesterol feeding, these mice develop various stages of atherosclerotic lesions depending on plasma total cholesterol levels and resembling those found in humans. See Groot et al. (1996), Arterioscler. Thromb. Vasc. Biol., 16:926-933; Versch ren et al. (2005), Arterioscler. Thromb. Vasc Biol., 25:161-167; and Lutgens et al. (1999), Circulation; 99(2):276-283). Thus, the E3L mouse is a suitable model for the investigation of the efficacy of anti-atherosclerotic drugs.
(§2) E3L mice were fed a high cholesterol (1% w/w) diet (HC diet) for a period of four weeks. Animals were then matched based on their plasma cholesterol levels, and were divided into five groups, each of which was maintained on an HC diet.

[2] = test system: APOE*3-Leiden transgenic (E3L) mice; assay: Total plasma triglyceride levels in E3L mice; assay type: in vivo, mouse
Text: as §1, §2
(§3) Blood samples were collected at days 0, 14, and 28 of the treatment period. At the end of the treatment period, animals were sacrificed, and various tissues and organs were analyzed. Unless otherwise indicated, values are mean±standard deviation (SD).

[3] = test system: APOE*3-Leiden transgenic (E3L) mice; assay: Plasma ketone body (D-3-hydroxybutyrate) levels in E3L mice; assay type: in vivo, mouse
Text: as §2
We quantified plasma D-3-hydroxybutyrate (b-HBA; ketone bodies) levels were quantified in plasma samples obtained after a 4-hour fasting period at time points t=0, t=2, and t=4 weeks using kits #2940 (b-HBA reagent set) and #2947 (b-HBA control set)) according to the guidelines and protocol specified by the manufacturer (Instruchemie, Delfzijl, The Netherlands).

[4] = test system: APOE*3-Leiden transgenic (E3L) mice; assay: Lipid content of liver (TLC) in E3L mice; assay type: in vivo, mouse
Text: as §2
A reduction of Red Oil O staining in liver generally indicates reduced liver lipid content. We therefore quantified levels of lipids in livers from each animal, as described in Havekes et al. (1987), Biochem. J., 247:739-746; Delsing et al. (2005), J. Cardiovasc. Pharmacol., 45:53-60; and Post et al. (2004), ATVB, 24:768-774. Liver tissue homogenates were prepared. Lipids were extracted, dried under nitrogen, dissolved in chloroform, and spotted onto a channeled 20×20 cm silica gel thin layer chromatography (TLC) plate. Lipids were then separated, TLC plates were warmed up to visualize bands, and bands were quantified using an internal standard as reference.

[5] = test system: APOE*3-Leiden transgenic (E3L) mice; assay: Total plasma cholesterol in E3L mice; assay type: in vivo, mouse
Text: as §1, §2, §3

[6] = test system: APOE*3-Leiden transgenic (E3L) mice; assay: Organ and tissue weights in E3L mice on high cholesterol diet
Text: as §1, §2, §3

[7] = test system: APOE*3-Leiden transgenic (E3L) mice; assay: Plasma alanine aminotransferase (ALAT) activity in E3L mice; assay type: in vivo, mouse
Description: as §2
Levels of plasma alanine aminotransferase (ALAT) were determined on day 28 (table 7). Plasma ALAT is a measure of hepatic stress and increases in plasma ALAT levels are often associated with liver damage. […] Thus, a reduction in plasma ALAT levels is associated with improved liver function.

[8] = test system: APOE*3-Leiden transgenic (E3L) mice; assay: Oil Red O staining of liver sections (steatosis) in E3L mice; assay type: in vivo, mouse; conditions: compared to the control vehicle group
Text: as §2
In order to examine cellular stress in the liver due to lipid storage (steatosis), we stained frozen liver tissue sections with Oil Red O a fat-soluble diazo dye used to stain for lipids. Digital photomicrographs of liver cross sections were taken for each individual animal (magnification: 20 fold). […]

[9] = test system: cynomolgus monkeys; assay: Time course of plasma OEA levels after oral dosing in cynomolgus monkeys; assay type: in vivo, cynomolgus monkey; conditions: oral 50-1500 mg/kg
Description: Afterwards, a time course of plasma OEA levels was determined for each subject by obtaining a plasma sample at 0.5, 1, 2, 4, 8, 12, and 24 hours post-administration.

[10] = test system: APOE*3-Leiden transgenic (E3L) mice; assay: Plasma leptin ELISA in E3L mice; assay type: in vivo, mouse
Text: as §2
Accordingly, we quantified plasma leptin levels after a four hour fasting period at treatment time points 0, 14, and 28 days using a mouse-specific leptin ELISA or (kit number MOB00 from R&D Systems, Minneapolis, Minn.) according to the guidelines and protocol specified by the manufacturer.

[11] = test system: APOE*3-Leiden transgenic (E3L) mice; assay: Body weight in E3L mice on high cholesterol diet; assay type: in vivo, mouse
Text: as §1, §2

[12] = test system: APOE*3-Leiden transgenic (E3L) mice; assay: Plasma lipoprotein profiles (size fractionation of pooled plasma) in E3L mice; assay type: in vivo, mouse; conditions: day 28, FIG. 1
Description: as §2
Lipoprotein profiles were determined in pooled plasma from day 28, as described in Verschuren et al. (2005), Arterioscler. Thromb. Vasc Biol., 25:161-167. An equal amount of plasma per animal was used to prepare a plasma pool for each group. Plasma lipoproteins in each plasma pool were separated by size fractionation. Typically, VLDL, IDL/LDL and HDL lipoproteins are eluted in fractions 4-8, fractions 11-16 and fractions 17-20, respectively.

[13] = test system: APOE*3-Leiden transgenic (E3L) mice; assay: Plasma adiponectin ELISA in E3L mice; assay type: in vivo, mouse
Text: as §2
We determined plasma adiponectin levels after a four hour fasting period at 0, 14, 28 days, using a mouse-specific adiponectin/Acrp30 ELISA (kit number MRP300 from R&D Systems, Minneapolis, Minn.).

[14] = E3L mice, HC diet, end of four-week treatment, mean ± SD

NC(=O)c1cccc(-c2cccc(OC(=O)NC3CCCCC3)c2)c1 [KDS-4103]
Food Intake Per Animal Per Day ([1]; interval 0-0.5 weeks): 2.3 ± 0.1 g
Food Intake Per Animal Per Day ([1]; interval 0.5-1.0 weeks): 2.4 ± 0.1 g
Food Intake Per Animal Per Day ([1]; interval 1.0-1.5 weeks): 2.3 ± 0.2 g
Food Intake Per Animal Per Day ([1]; interval 1.5-2.0 weeks): 2.6 ± 0.1 g
Food Intake Per Animal Per Day ([1]; interval 2.0-2.5 weeks): 2.3 ± 0.3 g
Food Intake Per Animal Per Day ([1]; interval 2.5-3.0 weeks): 2.5 ± 0.1 g
Food Intake Per Animal Per Day ([1]; interval 3.0-3.5 weeks): 2.4 ± 0.3 g
Food Intake Per Animal Per Day ([1]; interval 3.5-4.0 weeks): *2.0 ± 0.1 g
Food Intake Per Animal Per Day ([1]; interval run-in): 2.5 ± 0.5 g
food intake, in words ([1]; last time point): slight, but significant, decrease
Total Plasma Triglyceride Levels ([2]; day 0): 1.5 ± 0.4 mM
Total Plasma Triglyceride Levels ([2]; day 14): 1.9 ± 0.6 mM
Total Plasma Triglyceride Levels ([2]; day 28): 1.9 ± 0.5 mM
total plasma triglyceride levels, in words ([2]; relative to respective control group): not significantly changed
plasma HB levels, in words ([3]; at 28 days, compared to the oral vehicle control group): significantly lower
Plasma Ketone Body (HB) levels ([3]; day 0, 4-hour fasting): 0.73 ± 0.24 mM
Plasma Ketone Body (HB) levels ([3]; day 14, 4-hour fasting): 0.32 ± 0.11 mM
Plasma Ketone Body (HB) levels ([3]; day 28, 4-hour fasting): ^#0.43 ± 0.11^ mM
liver triglycerides (TG), in words ([4]; compared to respective control group): significantly decreased
liver cholesterol esters (CE), in words ([4]; compared to the oral vehicle group): significantly increased
Lipid Content of Liver: Cholesterol Esters ([4]; end of four-week treatment): ^#59 ± 6
Lipid Content of Liver: Free Cholesterol ([4]; end of four-week treatment): 22 ± 2
Lipid Content of Liver: Triglycerides ([4]; end of four-week treatment): *64 ± 14
Total Plasma Cholesterol ([5]; day 0): 14.3 ± 3.2 mM
Total Plasma Cholesterol ([5]; day 14): ^#19.1 ± 4.9 mM
Total Plasma Cholesterol ([5]; day 28): ^#19.5 ± 4.1 mM
total plasma cholesterol levels, in words ([5]; days 14 and 28, relative to respective control group): slightly and significantly increased
Organ and Tissue Weights: Brain [6, 14]: ^#0.46 ± 0.02^ g
Organ and Tissue Weights: Fat (gonadal fat) [6, 14]: *0.22 ± 0.04 g
Organ and Tissue Weights: Heart [6, 14]: 0.14 ± 0.02 g
Organ and Tissue Weights: Liver [6, 14]: 1.03 ± 0.14 g
Organ and Tissue Weights: Lung [6, 14]: 0.18 ± 0.01 g
brain weight, in words ([6]; end of treatment): slight, but significant increase
heart, liver, or lung weights, in words ([6]; end of treatment): No significant changes
gonadal fat weight, in words ([6]; relative to the oral vehicle group): significantly lower
Plasma Alanine Amino Transferase Activity ([7]; day 28): *94.0 ± 22.1 U/L
plasma ALAT levels, in words ([7]; day 28, compared to respective control group): significantly decreased
steatotic (Oil Red O) staining in liver, in words [8]: small, but not significant decrease
time of peak plasma OEA levels ([9]; FIG. 2): four
plasma OEA levels, in words ([9]; all time points after the peak (up to 24 hours)): remained elevated
plasma OEA levels, in words ([9]; two hours after administration, FIG. 2): clearly elevated
Plasma Leptin Levels ([10]; day 0, four hour fasting): ^#3.9 ± 1.5 ng/ml
Plasma Leptin Levels ([10]; day 14, four hour fasting): ^#4.5 ± 2.1 ng/ml
Plasma Leptin Levels ([10]; day 28, four hour fasting): ^#5.1 ± 2.3 ng/ml
plasma leptin levels, in words ([10]; relative to the oral vehicle control group): significantly decreased
body weights, in words ([11]; last time point (4 weeks), within group): significantly reduced
Body Weight ([11]; week 0): 21.8 ± 1.1 g
Body Weight ([11]; week 0.5): 21.9 ± 1.0 g
Body Weight ([11]; week 1): 21.9 ± 1.0 g
Body Weight ([11]; week 1.5): *21.3 ± 0.9 g
Body Weight ([11]; week 2): *21.4 ± 0.9 g
Body Weight ([11]; week 2.5): *21.4 ± 0.9 g
Body Weight ([11]; week 3): *21.3 ± 0.9 g
Body Weight ([11]; week 3.5): 21.5 ± 0.9 g
Body Weight ([11]; week 4): *21.5 ± 1.0 g
IDL/LDL particle size, in words [12]: slight shift toward larger IDL/LDL particles
VLDL fraction of plasma lipoprotein profile, in words [12]: increase
Plasma Adiponectin Levels ([13]; day 0, four hour fasting): 10.4 ± 1.9 µg/mL
Plasma Adiponectin Levels ([13]; day 14, four hour fasting): 10.2 ± 2.7 µg/mL
Plasma Adiponectin Levels ([13]; day 28, four hour fasting): ^#11.9 ± 1.9^ mg/ml
plasma adiponectin level, in words ([13]; day 28 as compared to day 0): significantly higher
